System: T47D cells expressing mutant PI3Ka (H1047R)
Test: In vitro cell proliferation, T47D cells (CellTiter-Glo)
Type: cell-based
Conditions: Homo sapiens, T47D, 72 h, inhibition of proliferation, read-out: Avg T-47D EC50
How it was run: (§1)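 1,500 cells/well seeded onto pre-stamped 10-pt dilution plates; T47D in RPMI + 10% FBS + insulin 0.2 units/mL, SKBR3 in McCoys 5a + 10% FBS. 72 h, 37 °C, 5% CO2. CTG readout. 0% = 0.1% DMSO, 100% = 10 uM Alpelisib; sigmoidal fit gives EC50.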

Compound	EC50
Cc1cc([C@@H](C)Nc2ccccc2C(=O)O)c2cc(-c3ccc(C(F)(F)F)cn3)n(C)c(=O)c2c1 [Example 396]	1 to 500 nM
C[C@@H](Nc1cccc(F)c1C(=O)O)c1cc(F)cc2c(=O)n(C)c(N3C4CCC3CN(CC(F)(F)F)C4)cc12 [Example 398]	1 to 500 nM
Cc1cc([C@@H](C)Nc2ccccc2C(=O)O)c2cc(Cl)n(C)c(=O)c2c1 [Example 400]	500 to 2000 nM
Cc1ncc(-c2ncc(-c3cc4c([C@@H](C)Nc5cccc(F)c5C(=O)O)cc(F)cc4c(=O)n3C)cc2F)cc1F [Example 403]	1 to 500 nM
C[C@@H](Nc1cccc(F)c1C(=O)O)c1cc(F)cc2c(=O)n(C)c(-c3cnc(-c4cncc(F)c4)c(F)c3)cc12 [Example 404]	1 to 500 nM
Cc1cc([C@@H](C)Nc2ccccc2C(=O)O)c2cc(N3CC(CC(F)(F)F)C3)n(C)c(=O)c2c1 [Example 405]	500 to 2000 nM
Cc1cc([C@@H](C)Nc2cccc(F)c2C(=O)O)c2cc(N3CCN(C)[C@@H](C(F)(F)F)C3)n(C)c(=O)c2c1 [Example 410]	1 to 500 nM
Cc1cc([C@@H](C)Nc2cccc(F)c2C(=O)O)c2cc(N3CCN(C)[C@H](C(F)(F)F)C3)n(C)c(=O)c2c1 [Example 411]	1 to 500 nM
C[C@@H](Nc1cccc(F)c1C(=O)O)c1cc(F)cc2c(=O)n(C)c(N3CC(F)(F)C3)cc12 [Example 412]	2000 to 15000 nM
C[C@@H](Nc1cccc(F)c1C(=O)O)c1cc(F)cc2c(=O)n(C)c(N3CC[C@@H](C(F)(F)F)C3)cc12 [Example 415]	500 to 2000 nM
C[C@@H](Nc1cccc(F)c1C(=O)O)c1cc(F)cc2c(=O)n(C)c(N3CC[C@H](C(F)(F)F)C3)cc12 [Example 416]	500 to 2000 nM
Cc1cnc(N2CCN(c3cc4c([C@@H](C)Nc5cccc(F)c5C(=O)O)cc(F)cc4c(=O)n3C)CC2)s1 [Example 417]	1 to 500 nM
Cc1cc([C@@H](C)Nc2ccccc2C(=O)O)c2cc(N3CCn4c(C)nnc4C3)n(C)c(=O)c2c1 [Example 418]	> 15000 nM
Cc1cc([C@@H](C)Nc2ccccc2C(=O)O)c2cc(N3CCn4ncnc4C3)n(C)c(=O)c2c1 [Example 419]	500 to 2000 nM
Cc1cc([C@@H](C)Nc2ccccc2C(=O)O)c2cc(-c3cnc(CC(F)(F)F)cn3)n(C)c(=O)c2c1 [Example 422]	1 to 500 nM
C[C@@H](Nc1cccc(F)c1C(=O)O)c1cc(F)cc2c(=O)n(C)c(N3CCN(c4cnn(C(C)(C)C#N)c4)CC3)cc12 [Example 424]	1 to 500 nM

System: phosphorylation of AKT (pAKT) in SKBR3 cells express WT PI3Ka
Test: In vitro cell pAKT (Ser473) HTRF, SKBR3 cells
Type: cell-based
Conditions: Homo sapiens, SK-BR-3, 6 h, cellular pAKT
How it was run: (§2)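 T47D cells (RPMI, 10% FBS, 0.2 units/mL insulin) or SKBR3 cells (McCoy's 5a, 10% FBS) were seeded onto 10-point compound dilutions and incubated 6 h at 37 °C. After lysis, pAKT was detected overnight by HTRF (Eu cryptate/d2). IC50 was fitted from % inhibition relative to 0.1% DMSO and 10 uM alpelisib controls.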

Compound	IC50
Cc1cc([C@@H](C)Nc2ccccc2C(=O)O)c2cc(-c3ccc(C(F)(F)F)cn3)n(C)c(=O)c2c1 [Example 396]	> 15000 nM
C[C@@H](Nc1cccc(F)c1C(=O)O)c1cc(F)cc2c(=O)n(C)c(N3C4CCC3CN(CC(F)(F)F)C4)cc12 [Example 398]	2000 to 15000 nM
Cc1cc([C@@H](C)Nc2ccccc2C(=O)O)c2cc(Cl)n(C)c(=O)c2c1 [Example 400]	> 15000 nM
Cc1ncc(-c2ncc(-c3cc4c([C@@H](C)Nc5cccc(F)c5C(=O)O)cc(F)cc4c(=O)n3C)cc2F)cc1F [Example 403]	> 15000 nM
C[C@@H](Nc1cccc(F)c1C(=O)O)c1cc(F)cc2c(=O)n(C)c(-c3cnc(-c4cncc(F)c4)c(F)c3)cc12 [Example 404]	> 15000 nM
Cc1cc([C@@H](C)Nc2ccccc2C(=O)O)c2cc(N3CC(CC(F)(F)F)C3)n(C)c(=O)c2c1 [Example 405]	> 15000 nM
Cc1cc([C@@H](C)Nc2cccc(F)c2C(=O)O)c2cc(N3CCN(C)[C@@H](C(F)(F)F)C3)n(C)c(=O)c2c1 [Example 410]	> 15000 nM
Cc1cc([C@@H](C)Nc2cccc(F)c2C(=O)O)c2cc(N3CCN(C)[C@H](C(F)(F)F)C3)n(C)c(=O)c2c1 [Example 411]	> 15000 nM
C[C@@H](Nc1cccc(F)c1C(=O)O)c1cc(F)cc2c(=O)n(C)c(N3CC(F)(F)C3)cc12 [Example 412]	> 15000 nM
C[C@@H](Nc1cccc(F)c1C(=O)O)c1cc(F)cc2c(=O)n(C)c(N3CC[C@@H](C(F)(F)F)C3)cc12 [Example 415]	> 15000 nM
C[C@@H](Nc1cccc(F)c1C(=O)O)c1cc(F)cc2c(=O)n(C)c(N3CC[C@H](C(F)(F)F)C3)cc12 [Example 416]	> 15000 nM
Cc1cnc(N2CCN(c3cc4c([C@@H](C)Nc5cccc(F)c5C(=O)O)cc(F)cc4c(=O)n3C)CC2)s1 [Example 417]	> 15000 nM
Cc1cc([C@@H](C)Nc2ccccc2C(=O)O)c2cc(N3CCn4c(C)nnc4C3)n(C)c(=O)c2c1 [Example 418]	> 15000 nM
Cc1cc([C@@H](C)Nc2ccccc2C(=O)O)c2cc(N3CCn4ncnc4C3)n(C)c(=O)c2c1 [Example 419]	> 15000 nM
Cc1cc([C@@H](C)Nc2ccccc2C(=O)O)c2cc(-c3cnc(CC(F)(F)F)cn3)n(C)c(=O)c2c1 [Example 422]	> 15000 nM
C[C@@H](Nc1cccc(F)c1C(=O)O)c1cc(F)cc2c(=O)n(C)c(N3CCN(c4cnn(C(C)(C)C#N)c4)CC3)cc12 [Example 424]	2000 to 15000 nM

System: phosphorylation of AKT (pAKT) in T47D cells expressing mutant PI3Ka (H1047R)
Test: In vitro cell pAKT (Ser473) HTRF, T47D cells
Type: cell-based
Conditions: Homo sapiens, T47D, 6 h, cellular pAKT, T47D cells, mutant PI3Ka (H1047R), 6 hours; read-out: Avg T-47D IC50
How it was run: as §2

Compound	IC50
Cc1cc([C@@H](C)Nc2ccccc2C(=O)O)c2cc(-c3ccc(C(F)(F)F)cn3)n(C)c(=O)c2c1 [Example 396]	1 to 500 nM
C[C@@H](Nc1cccc(F)c1C(=O)O)c1cc(F)cc2c(=O)n(C)c(N3C4CCC3CN(CC(F)(F)F)C4)cc12 [Example 398]	1 to 500 nM
Cc1cc([C@@H](C)Nc2ccccc2C(=O)O)c2cc(Cl)n(C)c(=O)c2c1 [Example 400]	500 to 2000 nM
Cc1ncc(-c2ncc(-c3cc4c([C@@H](C)Nc5cccc(F)c5C(=O)O)cc(F)cc4c(=O)n3C)cc2F)cc1F [Example 403]	1 to 500 nM
C[C@@H](Nc1cccc(F)c1C(=O)O)c1cc(F)cc2c(=O)n(C)c(-c3cnc(-c4cncc(F)c4)c(F)c3)cc12 [Example 404]	1 to 500 nM
Cc1cc([C@@H](C)Nc2ccccc2C(=O)O)c2cc(N3CC(CC(F)(F)F)C3)n(C)c(=O)c2c1 [Example 405]	1 to 500 nM
Cc1cc([C@@H](C)Nc2cccc(F)c2C(=O)O)c2cc(N3CCN(C)[C@@H](C(F)(F)F)C3)n(C)c(=O)c2c1 [Example 410]	1 to 500 nM
Cc1cc([C@@H](C)Nc2cccc(F)c2C(=O)O)c2cc(N3CCN(C)[C@H](C(F)(F)F)C3)n(C)c(=O)c2c1 [Example 411]	1 to 500 nM
C[C@@H](Nc1cccc(F)c1C(=O)O)c1cc(F)cc2c(=O)n(C)c(N3CC(F)(F)C3)cc12 [Example 412]	500 to 2000 nM
C[C@@H](Nc1cccc(F)c1C(=O)O)c1cc(F)cc2c(=O)n(C)c(N3CC[C@@H](C(F)(F)F)C3)cc12 [Example 415]	1 to 500 nM
C[C@@H](Nc1cccc(F)c1C(=O)O)c1cc(F)cc2c(=O)n(C)c(N3CC[C@H](C(F)(F)F)C3)cc12 [Example 416]	500 to 2000 nM
Cc1cnc(N2CCN(c3cc4c([C@@H](C)Nc5cccc(F)c5C(=O)O)cc(F)cc4c(=O)n3C)CC2)s1 [Example 417]	1 to 500 nM
Cc1cc([C@@H](C)Nc2ccccc2C(=O)O)c2cc(N3CCn4c(C)nnc4C3)n(C)c(=O)c2c1 [Example 418]	> 15000 nM
Cc1cc([C@@H](C)Nc2ccccc2C(=O)O)c2cc(N3CCn4ncnc4C3)n(C)c(=O)c2c1 [Example 419]	500 to 2000 nM
Cc1cc([C@@H](C)Nc2ccccc2C(=O)O)c2cc(-c3cnc(CC(F)(F)F)cn3)n(C)c(=O)c2c1 [Example 422]	1 to 500 nM
C[C@@H](Nc1cccc(F)c1C(=O)O)c1cc(F)cc2c(=O)n(C)c(N3CCN(c4cnn(C(C)(C)C#N)c4)CC3)cc12 [Example 424]	1 to 500 nM

System: SKBR3 cells express WT PI3Ka
Test: In vitro cell proliferation, SKBR3 cells (CellTiter-Glo)
Type: cell-based
Conditions: Homo sapiens, SK-BR-3, 72 h, inhibition of proliferation
How it was run: as §1

Compound	EC50
Cc1cc([C@@H](C)Nc2ccccc2C(=O)O)c2cc(-c3ccc(C(F)(F)F)cn3)n(C)c(=O)c2c1 [Example 396]	> 15000 nM
C[C@@H](Nc1cccc(F)c1C(=O)O)c1cc(F)cc2c(=O)n(C)c(N3C4CCC3CN(CC(F)(F)F)C4)cc12 [Example 398]	> 15000 nM
Cc1cc([C@@H](C)Nc2ccccc2C(=O)O)c2cc(Cl)n(C)c(=O)c2c1 [Example 400]	> 15000 nM
Cc1ncc(-c2ncc(-c3cc4c([C@@H](C)Nc5cccc(F)c5C(=O)O)cc(F)cc4c(=O)n3C)cc2F)cc1F [Example 403]	> 15000 nM
C[C@@H](Nc1cccc(F)c1C(=O)O)c1cc(F)cc2c(=O)n(C)c(-c3cnc(-c4cncc(F)c4)c(F)c3)cc12 [Example 404]	> 15000 nM
Cc1cc([C@@H](C)Nc2ccccc2C(=O)O)c2cc(N3CC(CC(F)(F)F)C3)n(C)c(=O)c2c1 [Example 405]	> 15000 nM
Cc1cc([C@@H](C)Nc2cccc(F)c2C(=O)O)c2cc(N3CCN(C)[C@@H](C(F)(F)F)C3)n(C)c(=O)c2c1 [Example 410]	> 15000 nM
Cc1cc([C@@H](C)Nc2cccc(F)c2C(=O)O)c2cc(N3CCN(C)[C@H](C(F)(F)F)C3)n(C)c(=O)c2c1 [Example 411]	> 15000 nM
C[C@@H](Nc1cccc(F)c1C(=O)O)c1cc(F)cc2c(=O)n(C)c(N3CC(F)(F)C3)cc12 [Example 412]	> 15000 nM
C[C@@H](Nc1cccc(F)c1C(=O)O)c1cc(F)cc2c(=O)n(C)c(N3CC[C@@H](C(F)(F)F)C3)cc12 [Example 415]	> 15000 nM
C[C@@H](Nc1cccc(F)c1C(=O)O)c1cc(F)cc2c(=O)n(C)c(N3CC[C@H](C(F)(F)F)C3)cc12 [Example 416]	> 15000 nM
Cc1cnc(N2CCN(c3cc4c([C@@H](C)Nc5cccc(F)c5C(=O)O)cc(F)cc4c(=O)n3C)CC2)s1 [Example 417]	> 15000 nM
Cc1cc([C@@H](C)Nc2ccccc2C(=O)O)c2cc(N3CCn4c(C)nnc4C3)n(C)c(=O)c2c1 [Example 418]	> 15000 nM
Cc1cc([C@@H](C)Nc2ccccc2C(=O)O)c2cc(N3CCn4ncnc4C3)n(C)c(=O)c2c1 [Example 419]	> 15000 nM
Cc1cc([C@@H](C)Nc2ccccc2C(=O)O)c2cc(-c3cnc(CC(F)(F)F)cn3)n(C)c(=O)c2c1 [Example 422]	> 15000 nM
C[C@@H](Nc1cccc(F)c1C(=O)O)c1cc(F)cc2c(=O)n(C)c(N3CCN(c4cnn(C(C)(C)C#N)c4)CC3)cc12 [Example 424]	> 15000 nM

Source: patent publication US20260078103A1, “ISOQUINOLONES AS PI3K INHIBITORS” (OnKure, Inc., priority 2022, published 2026)
